Data on one compound can be found in patent publication US20080090892A1, “AMORPHOUS ASENAPINE AND PROCESSES FOR PREPARING SAME” (N.V. Organon, priority 2006, published 2008).

Counter-ions that a name gives are not always drawn.

This data set is described as follows: Relative humidity (RH) study, visual assessment in double-vial relative humidity chambers. In kind it is physicochemical. The settings on record: approximately 36 hours. As for the experimental part:
Relative Humidity (RH): An RH study was conducted to determine appropriate handling conditions for amorphous asenapine maleate. Samples of Batch A1 were placed in double-vial relative humidity chambers at 3.4% RH, 8.2% RH and 22.5% RH and were visually assessed after approximately 36 hours.

Turning to `CN1C[C@@H]2c3ccccc3Oc3ccc(Cl)cc3[C@H]2C1` (relative stereo) [Batch A1, trans-5-chloro-2-methyl-2,3,3a,12b-tetrahydro-1H-dibenz[2,3:6,7]oxepino[4,5-c]pyrrole maleate], the “physical state after storage at controlled relative humidity (visual assessment)” value is “remained solid” (3.4% RH), “remained solid” (8.2% RH) and “deliquesced” (22.5% RH).
